From PubChem BioAssay AID1963841 (Molecular Pharmacology Branch, DTP, NCI, 2024)

System: 439559-082-T-J2-PDC spheroid viability
Assay: Anticancer human tumor 439559-082-T-J2-PDC patient-derived colon adenocarcinoma cell line growth inhibition [POLQ]
Details: spheroids with HUVEC and MSC; for IC50: curve of first compound; for viability, T/C: stronger effect = lower value
Summary of the method: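 Patient-derived tumour cells were co-cultured with HUVEC and mesenchymal stem cells as multicellular spheroids at 37 °C. They were treated with POLQ inhibitors (novobiocin, ART-558, RP6685) alone or combined with other agents. Top concentrations were at or near clinical Cmax (otherwise 10 microM; SN-38 at 1 microM), decreasing in half-log steps.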

[1] = second compound 0.0316 µM, first compound 0.0316 µM
[2] = second compound 0.0316 µM, first compound 0.1 µM
[3] = second compound 0.0316 µM, first compound 0.316 µM
[4] = second compound 0.0316 µM, first compound 1 µM
[5] = second compound 0.0316 µM, first compound 3.16 µM
[6] = second compound 0.0316 µM, first compound 10 µM
[7] = second compound 0.1 µM, first compound 0.0316 µM
[8] = second compound 0.1 µM, first compound 0.1 µM
[9] = second compound 0.1 µM, first compound 0.316 µM
[10] = second compound 0.1 µM, first compound 1 µM
[11] = second compound 0.1 µM, first compound 3.16 µM
[12] = second compound 0.1 µM, first compound 10 µM
[13] = second compound 0.316 µM, first compound 0.0316 µM
[14] = second compound 0.316 µM, first compound 0.1 µM
[15] = second compound 0.316 µM, first compound 0.316 µM
[16] = second compound 0.316 µM, first compound 1 µM
[17] = second compound 0.316 µM, first compound 3.16 µM
[18] = second compound 0.316 µM, first compound 10 µM
[19] = second compound 1 µM, first compound 0.0316 µM
[20] = second compound 1 µM, first compound 0.1 µM
[21] = second compound 1 µM, first compound 0.316 µM
[22] = second compound 1 µM, first compound 1 µM
[23] = second compound 1 µM, first compound 3.16 µM
[24] = second compound 1 µM, first compound 10 µM
[25] = second compound 3.16 µM, first compound 0.0316 µM
[26] = second compound 3.16 µM, first compound 0.1 µM
[27] = second compound 3.16 µM, first compound 0.316 µM
[28] = second compound 3.16 µM, first compound 1 µM
[29] = second compound 3.16 µM, first compound 3.16 µM
[30] = second compound 3.16 µM, first compound 10 µM
[31] = second compound 10 µM, first compound 0.0316 µM
[32] = second compound 10 µM, first compound 0.1 µM
[33] = second compound 10 µM, first compound 0.316 µM
[34] = second compound 10 µM, first compound 1 µM
[35] = second compound 10 µM, first compound 3.16 µM
[36] = second compound 10 µM, first compound 10 µM
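Also: spheroids exposed to compounds for seven days before readout.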
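For viability, T/C in this document: 100% = DMSO vehicle control viability.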

CCc1cc2c(N3CCc4c(cc(Cn5ccnc5)cc4-c4cn(C)nc4C(F)(F)F)C3=O)cc(C)nc2c(OC)n1 + COC1C(OC(N)=O)C(O)C(Oc2ccc3c(O)c(NC(=O)c4ccc(O)c(CC=C(C)C)c4)c(=O)oc3c2C)OC1(C)C
IC50 (second compound 0.0316 µM): > 10 µM
IC50 (second compound 0.1 µM): > 10 µM
IC50 (second compound 0.316 µM): > 10 µM
IC50 (second compound 1 µM): > 10 µM
IC50 (second compound 3.16 µM): > 10 µM
IC50 (second compound 10 µM): > 10 µM
viability, T/C [1]: 104%
viability, T/C [2]: 103%
viability, T/C [3]: 98.8%
viability, T/C [4]: 102%
viability, T/C [5]: 95.4%
viability, T/C [6]: 91.4%
viability, T/C [7]: 102%
viability, T/C [8]: 101%
viability, T/C [9]: 91.7%
viability, T/C [10]: 95.2%
viability, T/C [11]: 92.7%
viability, T/C [12]: 94.3%
viability, T/C [13]: 95.5%
viability, T/C [14]: 93.9%
viability, T/C [15]: 102%
viability, T/C [16]: 97.7%
viability, T/C [17]: 94.9%
viability, T/C [18]: 101%
viability, T/C [19]: 99.4%
viability, T/C [20]: 105%
viability, T/C [21]: 103%
viability, T/C [22]: 95.7%
viability, T/C [23]: 94.3%
viability, T/C [24]: 93.3%
viability, T/C [25]: 93.1%
viability, T/C [26]: 101%
viability, T/C [27]: 96.6%
viability, T/C [28]: 90.4%
viability, T/C [29]: 95.7%
viability, T/C [30]: 94.4%
viability, T/C [31]: 105%
viability, T/C [32]: 94.4%
viability, T/C [33]: 93.6%
viability, T/C [34]: 91.2%
viability, T/C [35]: 95.7%
viability, T/C [36]: 83.8%

CC1COCCN1c1cc(C2(O)CC3CCC(C2)O3)c2cnn(-c3ccn[nH]3)c2n1 (stereo unspecified) + Nc1ccc(C#CCN(C(=O)Cc2ncc(C(F)(F)F)cc2C(F)(F)F)c2ccc(F)cc2)nn1
IC50 (second compound 0.0316 µM): > 10 µM
IC50 (second compound 0.1 µM): > 10 µM
IC50 (second compound 0.316 µM): > 10 µM
IC50 (second compound 1 µM): > 10 µM
IC50 (second compound 3.16 µM): > 10 µM
IC50 (second compound 10 µM): > 10 µM
viability, T/C [1]: 97.8%
viability, T/C [2]: 88.4%
viability, T/C [3]: 77%
viability, T/C [4]: 62.4%
viability, T/C [5]: 59.4%
viability, T/C [6]: 51.4%
viability, T/C [7]: 102%
viability, T/C [8]: 85.8%
viability, T/C [9]: 79.4%
viability, T/C [10]: 60.3%
viability, T/C [11]: 56.9%
viability, T/C [12]: 54.4%
viability, T/C [13]: 126%
viability, T/C [14]: 73.7%
viability, T/C [15]: 66.8%
viability, T/C [16]: 60.1%
viability, T/C [17]: 59.2%
viability, T/C [18]: 50.2%
viability, T/C [19]: 97.1%
viability, T/C [20]: 100%
viability, T/C [21]: 78.2%
viability, T/C [22]: 66.7%
viability, T/C [23]: 60.6%
viability, T/C [24]: 55%
viability, T/C [25]: 82.5%
viability, T/C [26]: 80.5%
viability, T/C [27]: 82.3%
viability, T/C [28]: 60.6%
viability, T/C [29]: 59.1%
viability, T/C [30]: 58%
viability, T/C [31]: 91.7%
viability, T/C [32]: 80.7%
viability, T/C [33]: 66.9%
viability, T/C [34]: 53.1%
viability, T/C [35]: 55.3%
viability, T/C [36]: 48.6%

COc1cc2cc(C(=O)CCC(=O)O)sc2cc1OC + COC1C(OC(N)=O)C(O)C(Oc2ccc3c(O)c(NC(=O)c4ccc(O)c(CC=C(C)C)c4)c(=O)oc3c2C)OC1(C)C
IC50 (second compound 0.0316 µM): > 10 µM
IC50 (second compound 0.1 µM): > 10 µM
IC50 (second compound 0.316 µM): > 10 µM
IC50 (second compound 1 µM): > 10 µM
IC50 (second compound 3.16 µM): > 10 µM
IC50 (second compound 10 µM): > 10 µM
viability, T/C [1]: 94%
viability, T/C [2]: 96.2%
viability, T/C [3]: 90.1%
viability, T/C [4]: 92.3%
viability, T/C [5]: 100%
viability, T/C [6]: 95.2%
viability, T/C [7]: 94.1%
viability, T/C [8]: 103%
viability, T/C [9]: 103%
viability, T/C [10]: 95.7%
viability, T/C [11]: 111%
viability, T/C [12]: 98.1%
viability, T/C [13]: 98.6%
viability, T/C [14]: 99.1%
viability, T/C [15]: 96.2%
viability, T/C [16]: 97.8%
viability, T/C [17]: 97.1%
viability, T/C [18]: 93.2%
viability, T/C [19]: 98.1%
viability, T/C [20]: 99.3%
viability, T/C [21]: 98.8%
viability, T/C [22]: 94.7%
viability, T/C [23]: 96.1%
viability, T/C [24]: 91.3%
viability, T/C [25]: 99.1%
viability, T/C [26]: 99.5%
viability, T/C [27]: 84.7%
viability, T/C [28]: 95.6%
viability, T/C [29]: 98%
viability, T/C [30]: 89.5%
viability, T/C [31]: 99%
viability, T/C [32]: 96.9%
viability, T/C [33]: 97.9%
viability, T/C [34]: 95.9%
viability, T/C [35]: 111%
viability, T/C [36]: 89.6%
